Test results from patent US20190375708A1 (VenatoRx Pharmaceuticals, Inc., priority 2018, published 2019).

What was measured:
[1] = system: HBV replication in HepAD38 cells; assay: Anti-HBV replication assay in HepAD38 cells (QPCR of extracellular HBV DNA); assay type: cell-based, HBV (genotype D, serotype ayw); details: Hepatitis B virus, 168 h, 7 days incubation, extracellular HBV DNA by QPCR, read-out: Anti-HBV EC50
Summary of the method: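 Read-out is QPCR of HBV DNA released into culture supernatant, converted to percent of vehicle control and fitted to give EC50. Cells were HepAD38 induced by tetracycline removal and dosed […] for 7 days.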

[2] = In vitro cytotoxicity assay (MTT cell viability) in HepG2 cells; assay type: cell-based, human; details: human
Summary of the method: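 HepG2 cells incubated 7 days at 37 °C, 5% CO2 with compounds from 30 μM to 1.0 nM (8 half-log dilutions). Viability read as MTT formazan absorbance at 492 nm, normalised to vehicle controls; CC50 from 4-parameter non-linear regression.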

SMILES | EC50 [1] | CC50 at 7 days [2]
Cc1cc(NC(=O)c2c(Cl)c(C(=O)C(=O)NCc3cnc(N)s3)n3c2CCCC3)ccc1F [Example 503, 3-(2-(((2-aminothiazol-5-yl)methyl)amino)-2-oxoacetyl)-2-chloro-N-(4-fluoro-3-methylphenyl)-5,6,7,8-tetrahydroindolizine-1-carboxamide] | < 50 nM | > 30 µM
Cc1cc(NC(=O)c2c(Cl)c(C(=O)C(=O)NC3(CO)CCC3)n3c2CCCC3)ccc1F [Example 504, 2-chloro-N-(4-fluoro-3-methylphenyl)-3-(2-((1-(hydroxymethyl)cyclobutyl)amino)-2-oxoacetyl)-5,6,7,8-tetrahydroindolizine-1-carboxamide] | < 50 nM | 5 to 30 µM
Cc1cc(NC(=O)c2c(Cl)c(C(=O)C(=O)N[C@H]3COC[C@@H]3O)n3c2CCCC3)ccc1F [Example 505, 2-chloro-N-(4-fluoro-3-methylphenyl)-3-(2-(((3S,4R)-4-hydroxytetrahydrofuran-3-yl)amino)-2-oxoacetyl)-5,6,7,8-tetrahydroindolizine-1-carboxamide] | 500 to 1000 nM | > 30 µM
Cc1cc(NC(=O)c2c(Cl)c(C(=O)C(=O)N[C@H]3CCC[C@H]3O)n3c2CCCC3)ccc1F [Example 506, 2-chloro-N-(4-fluoro-3-methylphenyl)-3-(2-(((1S,2R)-2-hydroxycyclopentyl)amino)-2-oxoacetyl)-5,6,7,8-tetrahydroindolizine-1-carboxamide] | 500 to 1000 nM | 5 to 30 µM
Cc1cc(NC(=O)c2c(Cl)c(C(=O)C(=O)NC3(CO)CC(F)(F)C3)n3c2CCCC3)cnc1F [Example 507, 2-chloro-3-(2-((3,3-difluoro-1-(hydroxymethyl)cyclobutyl)amino)-2-oxoacetyl)-N-(6-fluoro-5-methylpyridin-3-yl)-5,6,7,8-tetrahydroindolizine-1-carboxamide] | 50 to 499 nM | > 30 µM
Cc1cc(NC(=O)c2c(Cl)c(C(=O)C(=O)NC(C)(C)CO)n3c2CCCC3)cnc1F [Example 508, 2-chloro-N-(6-fluoro-5-methylpyridin-3-yl)-3-(2-((1-hydroxy-2-methylpropan-2-yl)amino)-2-oxoacetyl)-5,6,7,8-tettrahydroindolizine-1-carboxamide] | 500 to 1000 nM | > 30 µM
Cc1noc([C@H](C)NC(=O)C(=O)c2c(Cl)c(C(=O)Nc3ccnc(F)c3)c3n2CCCC3)n1 [Example 509, (S)-2-chloro-N-(2-fluororpyridin-4-yl)-3-(2-((1-(3-methyl-1,2,4-oxadiazol-55-yl)ethyl)amino)-2-oxoacetyl)-5,6,7,8-tetrahydroindoliznie-1-carboxamide] | 500 to 1000 nM | > 30 µM
Cc1noc([C@@H](C)NC(=O)C(=O)c2c(Cl)c(C(=O)Nc3ccnc(F)c3)c3n2CCCC3)n1 [Example 510, (R)-2-chloro-N-(2-fluoropyridin-4-yl)-3-(2-((1-(3-methyl-1,2,4-oxadiazol-5-yl)ethyl)amino)-2-oxoacetyl)-5,6,7,8-tetrahydroindolizine-1-carboxamide] | > 1000 nM | > 30 µM
O=C(NC1(CO)CC(F)(F)C1)C(=O)c1c(Cl)c(C(=O)Nc2ccnc(F)c2)c2n1CCCC2 [Example 511, 2-chloro-3-(2-((3,3-difluoro-1-(hydroxymethyl)cyclobutyl)amino)-2-oxoacetyl)-N-(2-fluoropyridin-4-yl)-5,6,7,8-tetrahydroindolizine-1-carboxamide] | 50 to 499 nM | > 30 µM
CC(C)(CO)NC(=O)C(=O)c1c(Cl)c(C(=O)Nc2ccnc(F)c2)c2n1CCCC2 [Example 512, 2-chloro-N-(2-fluoropyridin-4-yl)-3-(2-((1-hydroxy-2-methylpropan-2-yl)amino)-2-oxoacetyl)-5,6,7,8-tetrahydroindolizine-1-carboxamide] | 500 to 1000 nM | > 30 µM
O=C(N[C@H]1COC[C@@H]1O)C(=O)c1c(Cl)c(C(=O)Nc2ccc(F)c(Cl)c2)c2n1CCCC2 [Example 513, 2-chloro-N-(3-chloro-4-fluorophenyl)-3-(2-(((3S,4R)-4-hydroxytetrahydrofuran-3-yl)amino)-2-oxoacetyl)-5,6,7,8-tetrahydroindolizine-1-carboxamide] | 50 to 499 nM | > 30 µM
O=C(N[C@H]1CCC[C@H]1O)C(=O)c1c(Cl)c(C(=O)Nc2ccc(F)c(Cl)c2)c2n1CCCC2 [Example 514, 2-chloro-N-(3-chloro-4-fluorophenyl)-3-(2-(((1S,2R)-2-hydroxycyclopentyl)amino)-2-oxoacettyl)-5,6,7,8-tetrahydroindolizine-1-carboxamide] | 50 to 499 nM | 5 to 30 µM
O=C(NC1(CO)CC(F)(F)C1)C(=O)c1c(Cl)c(C(=O)Nc2ccc(F)c(Cl)c2)c2n1CCCC2 [Example 515, 2-chloro-N-(3-chloro-4-fluorophenyl)-3-(2-((3,3-difluoro-1-(hydroxymethyl)cyclobutyl)amino)-2-oxoacetyl)-5,6,7,8-tetrahydroindolizine-1-carboxamide] | < 50 nM | 5 to 30 µM
Cc1noc([C@H](C)NC(=O)C(=O)c2c(Cl)c(C(=O)Nc3ccc(F)c(F)c3)c3n2CCCC3)n1 [Example 516, (S)-2-chloro-N-(3,4-difluorophenyl)-3-(2-((1-(3-methyl-1,2,4-oxadiazol-5-yl)ethyl)amino)-2-oxoacetyl)-5,6,7,8-tetrahydroindolizine--1 carboxamide] | 50 to 499 nM | > 30 µM
Cc1noc([C@@H](C)NC(=O)C(=O)c2c(Cl)c(C(=O)Nc3ccc(F)c(F)c3)c3n2CCCC3)n1 [Example 517, (R)-2-chloro-N-(3,4-difluorophenyl)-3-(2-((1-(3-methyl-1,2,4-oxadiazol-5-yl)ethyl)amino)-2-oxoacetyl)-5,6,7,8-tetrahydroindolizine-1-carboxamidde] | 50 to 499 nM | 5 to 30 µM
O=C(N[C@H]1COC[C@@H]1O)C(=O)c1c(Cl)c(C(=O)Nc2ccc(F)c(F)c2)c2n1CCCC2 [Example 518, 2-chloro-N-(3,4-difluorophenyl)-3-(2-(((3S,4R)-4-hydroxytetrahydrofuran-3-yl)amino)-2-oxoacetyl)-5,6,7,8-tetrahdyroindolinzie-1-carboxamide] | 50 to 499 nM | 5 to 30 µM
O=C(N[C@H]1CCC[C@H]1O)C(=O)c1c(Cl)c(C(=O)Nc2ccc(F)c(F)c2)c2n1CCCC2 [Example 519, 2-chloro-N-(3,4-difluorophenyl)-3-(2-(((1S,2R)-2-hydroxycyclopentyl)amino)-2-oxoacetyl)-5,6,7,8-tetrahydroindoliznie-1-carboxamide] | 50 to 499 nM | 5 to 30 µM
O=C(NC1(CO)CC(F)(F)C1)C(=O)c1c(Cl)c(C(=O)Nc2ccc(F)c(F)c2)c2n1CCCC2 [Example 520, 2-chloro-3-(2-((3,3-difluoro-1-(hydroxymethyl)cyclobutyl)amino)-2-oxoacetyl)-N-(3,4-difluorophenyl)-5,6,7,8-tetrahydroindolizine-1-carboxamide] | < 50 nM | > 30 µM
Cc1noc([C@H](C)NC(=O)C(=O)c2c(Cl)c(C(=O)Nc3cnc(F)c(C)c3)c3n2CCCC3)n1 [Example 521, (S)-2-chloro-N-(6-fluoro-5-methylpyridin-3-yl)-3-(2-((1-(3-methyl-1,2,4-oxadiazol-5-yl)ethyl)amino)-2-oxoacetyl)-5,6,7,8-tetrahydroindolizine-1-carboxamide] | > 1000 nM | > 30 µM
